From EP1020531A2, “Use of spore adhesion assays in fungicide screening” (priority 1999, dated 2000)

Assays:
[1] = tested on: Candida albicans; conditions: dacron fibers; Vuddhakel et al. (1988); cited from earlier work
[2] = tested on: Puccinia recondita; assay: Germination-associated spore adhesion assay in microtiter plates (sulforhodamine B); type: cell-based; conditions: for EC50 (ppm): inhibition of adhesion, 0.05% Tween 20, 19°C, 4 hours; for inhibition of germination-associated adhesion: statement in words
[3] = tested on: Pyricularia oryzae appressoria; conditions: Inoue et al., Pesticide Science 19, 145-152 (1987); cited from earlier work
[4] = tested on: Magnaporthe grisea; type: cell-based; conditions: for EC50 (ppm): inhibition of adhesion, YEG, 25°C, 6 hours; for inhibition of germination-associated adhesion: statement in words

Row | Molecule | EC50 (ppm) [2] [ppm] | inhibition of germination-associated adhesion [2] | EC50 (ppm) [4] [ppm] | inhibition of germination-associated adhesion [4] | other results
1 | CCC(C)(C)c1ccc(CC(C)CN2C[C@@H](C)O[C@@H](C)C2)cc1 (stereo partly shown) [amorolfine] |  |  |  |  | Candida adherence [1]: inhibit Candida adherence
2 | CC1=C(C(=O)Nc2ccccc2)SCCO1 [carboxin] | 0.081 | inhibited germination-associated adhesion |  |  | 
3 | Cn1c(=O)sc2cccc(Cl)c21 [chlobenthiazone] |  |  |  |  | adhesion of Pyricularia oryzae appressoria to barley leaves [3]: inhibited adhesion
4 | N#CC(CCc1ccc(Cl)cc1)(Cn1cncn1)c1ccccc1 (stereo not shown) [fenbuconazole] | 9.2 | little or no activity |  |  | 
5 | CCCCC(C#N)(Cn1cncn1)c1ccc(Cl)cc1 (stereo not shown) [myclobutanil] | >10 | little or no activity |  |  | 
6 | CCCN(CCOc1c(Cl)cc(Cl)cc1Cl)C(=O)n1ccnc1 [prochloraz] |  |  | >10.0 | little or no activity | 
7 | Cc1nc(C(F)(F)F)c(C(=O)Nc2c(Br)cc(OC(F)(F)F)cc2Br)s1 [thifluzamide] | 0.043 | inhibited germination-associated adhesion |  |  | 
8 | COC(=O)NC(=S)Nc1ccccc1NC(=S)NC(=O)OC [thiophanate-methyl] |  |  | 7.5 | little or no activity | 
9 | Cc1cccc2sc3nncn3c12 [tricyclazole] |  |  |  |  | adhesion of Pyricularia oryzae appressoria to barley leaves [3]: inhibited adhesion
10 | mancozeb | 0.56 | inhibited germination-associated adhesion | 0.115 | potent inhibitors of germination-associated adhesion | 
